In one series the test system is HL-60. Kind of series: Cell proliferation assay (MTT/MTS). Particulars: Homo sapiens, HL-60, read-out: IC50 ± SEM.
A further series deals with Colo-829. Nature of the series: Cell proliferation assay (MTT/MTS). The following applies: Homo sapiens, COLO-829, read-out: IC50 ± SEM.
A further series relates to A375 cells. Nature of the series: Apoptosis assay by flow cytometry. Particulars: 48 h. On the technique in general: In flow cytometry, cells or beads pass a laser one at a time.
Another series concerns COLO 205 cells. Kind of series: Apoptosis assay by flow cytometry. Particulars: 48 h, control 21.9%.
For the next series, the system named is A375. Nature of the series: Cell proliferation assay (MTT/MTS). Particulars: Homo sapiens, A-375, read-out: IC50 ± SEM.
A further series relates to H1975. Kind of series: Cell proliferation assay (MTT/MTS). The following applies: Homo sapiens, NCI-H1975, read-out: IC50 ± SEM.
The next series concerns A549. Kind of series: Cell proliferation assay (MTT/MTS). Particulars: Homo sapiens, A549, read-out: IC50 ± SEM.
Another series concerns HT-29. Nature of the series: Cell proliferation assay (MTT/MTS). Particulars: Homo sapiens, HT-29, read-out: IC50 ± SEM.
For a further series, the system named is Calu-6. Kind of series: Cell proliferation assay (MTT/MTS). Particulars: Homo sapiens, Calu-6, read-out: IC50 ± SEM.
The next series deals with MRC-5. Kind of series: Cell proliferation assay (MTT/MTS). The following applies: Homo sapiens, MRC5, read-out: IC50 ± SEM.
For a further series, the system named is COLO 205. Nature of the series: Cell proliferation assay (MTT/MTS). Particulars: Homo sapiens, COLO 205, read-out: IC50 ± SEM.
The subject of another series is hERG channel. On the set-up: method as in Food and Drug Administration, 2015. Particulars: ref Food and Drug Administration, 2015; cited from earlier work.
The conditions of series [1]: cited from earlier work.
Details of series [2]: method as in Infante et al., 2012. The following applies: requires DMSO as co-solvate; ref Infante et al., 2012; cited from earlier work.
The target of the next series is MEK1/MAP2K1(h) (Homo sapiens, UniProt Q02750). Nature of the series: MEK1 inhibition, comparison of tunlametinib and MEK162 (Caliper EZ Reader).
MEK1/MAP2K1(h), sequence (Q02750 whole entry): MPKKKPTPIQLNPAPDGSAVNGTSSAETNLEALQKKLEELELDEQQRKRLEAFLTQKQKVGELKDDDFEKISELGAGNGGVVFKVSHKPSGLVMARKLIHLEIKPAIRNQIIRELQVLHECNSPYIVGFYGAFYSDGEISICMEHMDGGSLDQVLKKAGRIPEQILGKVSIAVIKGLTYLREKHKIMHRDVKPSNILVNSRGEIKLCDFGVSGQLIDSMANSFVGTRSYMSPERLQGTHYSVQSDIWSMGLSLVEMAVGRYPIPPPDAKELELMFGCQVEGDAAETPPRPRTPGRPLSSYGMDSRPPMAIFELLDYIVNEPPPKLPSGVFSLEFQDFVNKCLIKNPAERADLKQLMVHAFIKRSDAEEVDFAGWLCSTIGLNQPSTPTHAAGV
The target of the next series is MEK1 kinase. On the set-up: method as in Iverson et al., 2009. Particulars: ref Iverson et al., 2009; cited from earlier work.
Another series concerns the target MEK2 kinase. On the set-up: method as in Iverson et al., 2009. Particulars: ref Iverson et al., 2009; cited from earlier work.

Where only a bound is given, the exact number is not on record here.

Procedure for A375 cells: (§1) Cell lines were inoculated at the density of 2×10^4 cells per well in a 6-well plate and cultured overnight. […] The cell cycle or apoptosis analysis was performed by flow cytometry.
(§2) Tumor cell lines were inoculated in 6-well plates at a density of 2×10^4 cells/well. […] Both apoptosis and cell cycle were measured by flow cytometry (Accuri C6, BD biosciences).
Procedure for A549: (§3) All cell lines were authenticated by short tandem repeat analysis and maintained following the ATCC instructions. […] Anti-proliferation activity was analyzed using the 3-(4,5-dimethylthiazole-2-yl)-2,5-diphenyl-2H-tetrazolium bromide (MTT) or (3-(4,5-dimethylthiazol-2-yl)-5-(3-carboxymethoxyphenyl)-2 -(4-sulfophenyl)-2H-tetrazolium) (MTS) assay.
(§4) Cells were seeded into 96-well plates at an appropriate density, and 24 h later, diluted drug in different concentrations was added to each test well in triplicate. The cell viability was tested 5 days (H358 was analyzed for 7 days) after the cells were plated according to the procedure originally described by Mosmann [1]. Survival rate was calculated using the formula: Survival rate = (Mean absorbance of experimental wells-Mean absorbance of DMSO wells) / (Mean absorbance of control wells-Mean absorbance of DMSO wells) × 100%. IC50 was determined from the regression of a plot of the logarithm of the concentration versus survival rate by GraphPad Prism 6 using the non-linear regression Dose–Response Inhibition (four parameters) Model.
Procedure for COLO 205 cells: as §1, §2
Procedure for Calu-6: as §3, §4
Procedure for Colo-829: as §3, §4
Procedure for H1975: as §3
(§5) A375, HT-29 and Calu-6 cell lines were purchased from the typical culture preservation commission cell bank of the Chinese Academy of Sciences in China. […] H358 cell line was obtained from EK-bioscience. Cells were seeded into 96-well plates at an appropriate density, and 24 h later, diluted drug in different concentrations was added to each test well in triplicate. The cell viability was tested 5 days (H358 was analyzed for 7 days) after the cells were plated according to the procedure originally described by Mosmann [1]. Survival rate was calculated using the formula: Survival rate = (Mean absorbance of experimental wells-Mean absorbance of DMSO wells) / (Mean absorbance of control wells-Mean absorbance of DMSO wells) × 100%. IC50 was determined from the regression of a plot of the logarithm of the concentration versus survival rate by GraphPad Prism 6 using the non-linear regression Dose–Response Inhibition (four parameters) Model.
Procedure for HL-60: as §3, §5
Procedure for HT-29: as §3, §4
Procedure for MEK1/MAP2K1(h): Kinase inhibition activity against MEK1 was conducted in Cerep (France) and Sundia (Shanghai, China).
The signals were measured using Caliper EZ Reader and the data were analyzed.
Procedure for MRC-5: as §3, §5

`Cn1cnc2c(F)c(Nc3ccc(Br)cc3Cl)c(C(=O)NOCCO)cc21` [AZD6244, selumetinib]: the IC50 (usually the concentration that gives 50% inhibition) is 35.3 ± 20.9 nM in the series with HL-60; 301 ± 88.8 nM with Colo-829; 67.52 ± 0.07 nM with A375; above 50000 nM with H1975; 5730 ± 1030 nM in the series on A549; 175 ± 19.3 nM in the series with HT-29. Besides, the IC50 in the series with Calu-6 was 2310 ± 204 nM; in the series on MRC-5, above 50000 nM; with COLO 205 it was 54.3 ± 2.21 nM. For the same molecule, the apoptosis-inducing effect result with A375 cells was “no significant apoptosis-inducing effect”. The apoptosis rate in the series with COLO 205 cells (1 μM) is recorded as 40.6%.
In the case of `O=C(c1ccc(F)c(F)c1Nc1ccc(I)cc1F)N1CC(O)([C@@H]2CCCCN2)C1` [Cobimetinib, cobimetinib], in the series on hERG channel, the IC50 was 500 nM.
Regarding `CC(=O)Nc1cccc(-n2c(=O)n(C3CC3)c(=O)c3c(Nc4ccc(I)cc4F)n(C)c(=O)c(C)c32)c1` [GSK212, trametinib], the drug accumulation in series [1] (ref Infante et al., 2012) was around 6 fold. Besides, the “mean accumulation ratio (day15/day1)” value in [1] (repeat dose of 2 mg, ref Food and Drug Administration, 2013) is reported as around 6.0. Besides, the IC50 is 0.6 ± 0.28 nM in the series on HL-60; 1.78 nM in the series on Colo-829; 0.74 ± 0.01 nM in the series on A375; above 1000 nM with H1975; 45.4 ± 4.76 nM in the series on A549; 1.45 ± 0.2 nM in the series with HT-29. In addition, the IC50 was 10.56 ± 0.07 nM in the series with Calu-6, above 1000 nM in the series with MRC-5 and 0.74 ± 0.02 nM with COLO 205. Besides, the apoptosis-inducing effect result in the series on A375 cells is reported as “no significant apoptosis-inducing effect”. Besides, in the series on COLO 205 cells (20 nM), the apoptosis rate is listed as 47.0%. The solubility property entry in series [2] is listed as “poor solubility”.
As for `Cn1cnc2c(F)c(Nc3ccc(Br)cc3F)c(C(=O)NOCCO)cc21` [MEK162, binimetinib], the IC50 at MEK1/MAP2K1(h) turned out to be 224 ± 16.9 nM.
Take `COc1cc(F)c(F)c(Nc2ccc(I)cc2F)c1NS(=O)(=O)C1(C[C@H](O)CO)CC1` [REDA119]: the IC50 on MEK1 kinase is 19 nM; on MEK2 kinase, 47 nM.
